Laboratory results reported in patent publication US20250034139A1, “AMINE COMPOUNDS HAVING ANTI-INFLAMMATORY, ANTIFUNGAL, ANTIPARASITIC, AND ANTICANCER ACTIVITY” (PHARMA CINQ, LLC, priority 2013, published 2025).
Converted amounts (≈) assume the structure as drawn. Where two headings read alike, the source gives them in different places.

Legend:
Rhizopus strains = test: Example N: MIC and MFC (CLSI) against Rhizopus; type: cell-based, Rhizopus spp.; conditions: for MIC50 / MIC: Rhizopus; for MIC: read-out: MIC 100%
Experimental: (§1) The objective of this study was to determine the antifungal activity of eight experimental compounds against a representative panel of fungal isolates, including Candida albicans, C. glabrata, Cryptococcus neoformans, Trichophyton rubrum, Aspergillus fumigatus, and Rhizopus spp. Antifungal activity was measured by minimum inhibitory concentration (MIC) and minimum fungicidal concentration (MFC).
(§2) Three recent clinical strains of each species, taken from the culture collection at the Center for Medical Mycology, Case Western University, were tested.
(§3) Compounds in powder form were dissolved in DMSO. Serial dilutions of each compound were then prepared in RPMI-1640 in a range of […].
(§4) MIC testing was performed according to the CLSI M27-A3 and M38-A2 standards for the susceptibility testing of yeasts and filamentous fungi, respectively (1, 2). Test isolates were subcultured from frozen slants onto potato dextrose agar plates (Trichophyton rubrum was subcultured onto oatmeal plates for conidia production) and checked for purity. Inocula were then prepared in RPMI-1640 (YNB for Cryptococcus) to a concentration of 0.5-2.5×10^3 colony-forming units (CFU)/ml or 0.4-5×10^4 conidia/ml for yeast and filamentous fungi, respectively.
(§5) MFC determinations were performed according to the modifications previously described by Canton et al. and Ghannoum and Isham. (3, 4) Specifically, the total contents of each clear well from the MIC assay were subcultured onto potato dextrose agar. To avoid antifungal carryover, the aliquots were allowed to soak into the agar and then were streaked for isolation once dry, thus removing the cells from the drug source.

[1] = system: Aspergillus fumigatus strains; test: Example N: MIC and MFC (CLSI) against Aspergillus fumigatus; type: cell-based; parameters: MIC at 50% inhibition: unit not given here; conditions: for MIC50 / MIC: Aspergillus fumigatus; for MIC: read-out: MIC 100%
Experimental: as §1, §2, §3, §4, §5

[2] = system: Cryptococcus neoformans strains; test: Example N: MIC and MFC (CLSI) against Cryptococcus neoformans; type: cell-based; conditions: Cryptococcus neoformans, three clinical strains; for MIC: read-out: MIC 100%, Range, incubated for 72 hrs
Experimental: as §1, §2, §3, §4, §5

Trichophyton rubrum = test: Example J: Trichophyton rubrum growth inhibition, scoring by eye; type: cell-based; conditions: Trichophyton rubrum, 144 h; 6 days at 30° C., tested 6 to 40 μM; read-out: MIC, μM (maximum inhibition concentration, scoring by eye)
In short: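 Filtered T. rubrum suspension from PDA plates (grown 4 days, 30 °C) treated with diluted compounds in triplicate, incubated 6 days at 30 °C. Plates imaged; MIC scored by eye.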

Candida glabrata strains = test: Example N: MIC and MFC (CLSI) against Candida glabrata; type: cell-based; conditions: Nakaseomyces glabratus; for MIC: read-out: MIC 100%; for MFC: range over Candida glabrata strains, in 48 hr
Experimental: as §1, §2, §3, §4, §5

[3] = system: PC-3 prostate cancer cells; test: Example T: sensitisation of PC-3 cells to doxorubicin, oxaliplatin, paclitaxel or vincristine, Wst1; type: cell-based, human; conditions: PC-3 cells, 72 hours
[4] = system: PC3 human prostate cancer cells; test: Example S: in vitro anticancer screen, PC-3 cells, Wst1; type: cell-based; conditions: Homo sapiens, PC-3; 0.4 μM, approximately 20 hours, Wst1; read-out: PC-3, percent of cancer cell survival relative to vehicle treated cells
In short: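 PC-3 cells, 2×10^4 cells/well, exposed ~20 h to vehicle or compound at 0.4, 0.5 or 2.5 μM as specified per compound. Wst1 dye added for 2 h; absorbance 450 nm (reference 630 nm), triplicates. Values are percent cell survival versus vehicle-treated cells.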

[5] = system: 4T1 murine breast cancer cells; test: Example S: in vitro anticancer screen, 4T1 cells, Wst1; type: cell-based, mouse; conditions: Mus musculus, 4T1, 18 h, 18 hr, Wst1
In short: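 4T1 cells seeded at 1×10^4/well were exposed to compound at 1 μM or 5 μM for 18 hr after plating. Wst1 tetrazolium dye was then added for about 2 hr and absorbance read at 450 nm (reference 630 nm). Values are percent survival relative to vehicle-treated cells.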

MIC50 (Rhizopus strains; 24 h) [µg/mL]	MIC (Rhizopus strains; 24 h) [µg/mL]	MIC50 (Rhizopus strains; 48 h) [µg/mL]	MIC (Rhizopus strains; 48 h) [µg/mL]	MIC50 ([1]; 24 h) [µg/mL]	MIC ([1]; 24 h) [µg/mL]	MIC50 ([1]; 48 h) [µg/mL]	MIC ([1]; 48 h) [µg/mL]	MIC [2] [µg/mL]	MIC (Trichophyton rubrum) [µM]	MIC50 (Candida glabrata strains; 24 h) [µg/mL]	MIC (Candida glabrata strains; 24 h) [µg/mL]	MIC50 (Candida glabrata strains; 48 h) [µg/mL]	MIC (Candida glabrata strains; 48 h) [µg/mL]	SMILES	MFC [2] [µg/mL]	MFC (Candida glabrata strains) [µg/mL]	other results
< 0.12	1 to 2 (≈ 2.64 to 5.27 µM)	1 to 2 (≈ 2.64 to 5.27 µM)	1 to 4 (≈ 2.64 to 10.5 µM)	0.12 to 0.5 (≈ 0.316 to 1.32 µM)	0.12 to 1 (≈ 0.316 to 2.64 µM)	0.5 to 2 (≈ 1.32 to 5.27 µM)	1 to 4 (≈ 2.64 to 10.5 µM)	0.25 to 4 (≈ 0.659 to 10.5 µM)	6 (≈ 2.28 µg/mL)	4 (≈ 10.5 µM)	4 (≈ 10.5 µM)	4 to 8 (≈ 10.5 to 21.1 µM)	4 to 8 (≈ 10.5 to 21.1 µM)	COc1ccc(OCCCCCCCCNc2ncnc3ccccc23)cc1 [AE, N-[8-(4-Methoxyphenoxy)octyl]quinazolin-4-amine]	1 to 8 (≈ 2.64 to 21.1 µM)	16 to 64 (≈ 42.2 to 169 µM)	MIC at 50% inhibition (Rhizopus strains; 24 hrs): < 0.12 µg/mL; MFC (Rhizopus strains; range over Rhizopus strains, in 48 hr): 64 µg/mL (≈ 169 µM); MIC at 50% inhibition ([1]; 24 hrs): <0.12-0.5; MIC at 100% inhibition ([1]; 24 hrs): <0.12-1; MFC ([1]; range over Aspergillus fumigatus strains, in 48 hr): > 64 µg/mL
4 (≈ 10.2 µM)	4 to 8 (≈ 10.2 to 20.5 µM)	4 to 8 (≈ 10.2 to 20.5 µM)	8 (≈ 20.5 µM)	2 to 4 (≈ 5.12 to 10.2 µM)	4 to 8 (≈ 10.2 to 20.5 µM)	8 (≈ 20.5 µM)	16 (≈ 40.9 µM)	2 (≈ 5.12 µM)	6 (≈ 2.35 µg/mL)	4 (≈ 10.2 µM)	8 (≈ 20.5 µM)	8 (≈ 20.5 µM)	8 to 16 (≈ 20.5 to 40.9 µM)	CCCCCCOCCCCCCCCNc1ccnc2cc(Cl)ccc12 [AW, 7-Chloro-N-[8-(hexyloxy)octyl]quinolin-4-amine]	2 to 8 (≈ 5.12 to 20.5 µM)	16 to 32 (≈ 40.9 to 81.8 µM)	viability at 0.4 µM ([3]; Homo sapiens, compound 0.4 μM alone, Wst1, vehicle = 100, read-out: No Chemo: percent cell survival): 38.2%; Doxorubicin 3.5 μM: percent cell survival ([3]; compound 0.4 μM + doxorubicin 3.5 μM, chemotherapy agent alone normalized to 100%): 59.5%; Oxaliplatin 100 μM: percent cell survival ([3]; compound 0.4 μM + oxaliplatin 100 μM, chemotherapy agent alone normalized to 100%): 70%; Paclitaxel 50 μM: percent cell survival ([3]; compound 0.4 μM + paclitaxel 50 μM, chemotherapy agent alone normalized to 100%): 51.3%; Vincristine 100 nM: percent cell survival ([3]; compound 0.4 μM + vincristine 100 nM, chemotherapy agent alone normalized to 100%): 33.6%; viability at 0.4 µM [4]: 38.2%; viability at 1 µM ([5]; 1 μM, read-out: 4T1 1 μM, percent of cancer cell survival relative to vehicle treated cells): 44.2%; viability at 5 µM ([5]; 5 μM, read-out: 4T1 5 μM, percent of cancer cell survival relative to vehicle treated cells): 18%
